Laboratory results published in patent publication US20260232767A1, “INTERLEUKIN-23 RECEPTOR ANTAGONIST PEPTIDES FOR USE IN THE TREATMENT OF PSORIASIS” (Janssen Pharmaceutica NV, priority 2023, published 2026).

System: subjects with moderate-to-severe plaque psoriasis
Assay: Hematology and chemistry laboratory values by CTCAE grade
Type: in vivo, human
Conditions: through Week 56
Source text: The proportion of participants who discontinued study intervention due to one or more AEs was low (n=4). All events were singular in nature with no apparent dose-dependent increase (Table 48 and Table 52). The number of participants with abnormal hematology and chemistry laboratory values with CTCAE toxicity grade≥3 were low through the end of the study (Table 43 through Table 46). There was no apparent dose-dependent increase in laboratory abnormality occurrences.

CC(=O)NCCCC[C@@H]1NC(=O)[C@H](Cc2c[nH]c3c(C)cccc23)NC(=O)[C@H]([C@@H](C)O)NC(=O)[C@H](CC(N)=O)NC(=O)[C@@H](NC(C)=O)C(C)(C)SSC(C)(C)[C@@H](C(=O)N[C@@H](Cc2ccc(OCCN)cc2)C(=O)N[C@@H](Cc2ccc3ccccc3c2)C(=O)NC2(C(=O)N[C@@H](CCC(=O)O)C(=O)N[C@@H](CC(N)=O)C(=O)N[C@@H](Cc3cccnc3)C(=O)N(C)CC(N)=O)CCOCC2)NC1=O [IL-23 receptor antagonist peptide, Ac-[Pen]*-N-T-[W(7-Me)]-[Lys(Ac)]-[Pen]*-Phe[4-(2-aminoethoxy)]-[2-Nal]-[THP]-E-N-[3-Pal]-Sarc-NH2 (*[Pen]-[Pen]* formdisulfidebond)]
Creatinine (increased): Subjects with Grade 3 (100 mg BID): 0
Creatinine (increased): Subjects with Grade 4 (100 mg BID): 0
Gamma Glutamyl Transferase (increased): Subjects with Grade 2 (100 mg BID): 0
Gamma Glutamyl Transferase (increased): Subjects with Grade 3 (100 mg BID): 0
Gamma Glutamyl Transferase (increased): Subjects with Grade 4 (100 mg BID): 0
Glucose (decreased): Subjects with Grade 2 (100 mg BID): 0
Glucose (decreased): Subjects with Grade 3 (100 mg BID): 0
Glucose (decreased): Subjects with Grade 4 (100 mg BID): 0
Hemoglobin (g/L) (decreased): subjects with Grade 2 (100 mg BID): 0
Hemoglobin (g/L) (decreased): subjects with Grade 3 (100 mg BID): 0
Hemoglobin (g/L) (decreased): subjects with Grade 4 (100 mg BID): 0
Hemoglobin (g/L) (increased): subjects with Grade 2 (100 mg BID): 0
Hemoglobin (g/L) (increased): subjects with Grade 3 (100 mg BID): 0
Hemoglobin (g/L) (increased): subjects with Grade 4 (100 mg BID): 0
Lymphocytes (×10^9/L) (decreased): subjects with Grade 2 (100 mg BID): 0
Lymphocytes (×10^9/L) (decreased): subjects with Grade 3 (100 mg BID): 0
Lymphocytes (×10^9/L) (decreased): subjects with Grade 4 (100 mg BID): 0
Lymphocytes (×10^9/L) (increased): subjects with Grade 1 (100 mg BID): 0
Lymphocytes (×10^9/L) (increased): subjects with Grade 2 (100 mg BID): 0
Lymphocytes (×10^9/L) (increased): subjects with Grade 3 (100 mg BID): 0
Lymphocytes (×10^9/L) (increased): subjects with Grade 4 (100 mg BID): 0
Lymphocytes (×10^9/L) (increased): subjects with postbaseline maximum toxicity grade >0 (100 mg BID): 0
Magnesium (decreased): Subjects with Grade 1 (100 mg BID): 0
Magnesium (decreased): Subjects with Grade 2 (100 mg BID): 0
Magnesium (decreased): Subjects with Grade 3 (100 mg BID): 0
Magnesium (decreased): Subjects with Grade 4 (100 mg BID): 0
Magnesium (decreased): Subjects with postbaseline maximum toxicity grade >0 (100 mg BID): 0
Magnesium (increased): Subjects with Grade 2 (100 mg BID): 0
Magnesium (increased): Subjects with Grade 3 (100 mg BID): 0
Magnesium (increased): Subjects with Grade 4 (100 mg BID): 0
Neutrophils (×10^9/L) (decreased): subjects with Grade 3 (100 mg BID): 0
Neutrophils (×10^9/L) (decreased): subjects with Grade 4 (100 mg BID): 0
Platelets (×10^9/L) (decreased): subjects with Grade 2 (100 mg BID): 0
Platelets (×10^9/L) (decreased): subjects with Grade 3 (100 mg BID): 0
Platelets (×10^9/L) (decreased): subjects with Grade 4 (100 mg BID): 0
Potassium (decreased): Subjects with Grade 1 (100 mg BID): 0
Potassium (decreased): Subjects with Grade 2 (100 mg BID): 0
Potassium (decreased): Subjects with Grade 3 (100 mg BID): 0
Potassium (decreased): Subjects with Grade 4 (100 mg BID): 0
Potassium (decreased): Subjects with postbaseline maximum toxicity grade >0 (100 mg BID): 0
Potassium (increased): Subjects with Grade 1 (100 mg BID): 5
Potassium (increased): Subjects with Grade 2 (100 mg BID): 0
Potassium (increased): Subjects with Grade 3 (100 mg BID): 0
Potassium (increased): Subjects with Grade 4 (100 mg BID): 0
Potassium (increased): Subjects with postbaseline maximum toxicity grade >0 (100 mg BID): 5
Sodium (decreased): Subjects with Grade 1 (100 mg BID): 0
Sodium (decreased): Subjects with Grade 2 (100 mg BID): 0
Sodium (decreased): Subjects with Grade 3 (100 mg BID): 0
Sodium (decreased): Subjects with Grade 4 (100 mg BID): 0
Sodium (decreased): Subjects with postbaseline maximum toxicity grade >0 (100 mg BID): 0
Sodium (increased): Subjects with Grade 2 (100 mg BID): 0
Sodium (increased): Subjects with Grade 3 (100 mg BID): 0
Sodium (increased): Subjects with Grade 4 (100 mg BID): 0
Total Bilirubin (increased): Subjects with Grade 2 (100 mg BID): 0
Total Bilirubin (increased): Subjects with Grade 3 (100 mg BID): 0
Total Bilirubin (increased): Subjects with Grade 4 (100 mg BID): 0
Triglycerides (increased): Subjects with Grade 4 (100 mg BID): 0
WBC (×10^9/L) (decreased): subjects with Grade 2 (100 mg BID): 0
WBC (×10^9/L) (decreased): subjects with Grade 3 (100 mg BID): 0
WBC (×10^9/L) (decreased): subjects with Grade 4 (100 mg BID): 0
WBC (×10^9/L) (increased): subjects with Grade 1 (100 mg BID): 0
WBC (×10^9/L) (increased): subjects with Grade 2 (100 mg BID): 0
WBC (×10^9/L) (increased): subjects with Grade 3 (100 mg BID): 0
WBC (×10^9/L) (increased): subjects with Grade 4 (100 mg BID): 0
WBC (×10^9/L) (increased): subjects with postbaseline maximum toxicity grade >0 (100 mg BID): 0
Alanine Aminotransferase (increased): Subjects with Grade 1 (100 mg QD): 12
Alanine Aminotransferase (increased): Subjects with Grade 3 (100 mg QD): 0
Alanine Aminotransferase (increased): Subjects with Grade 4 (100 mg QD): 0
Albumin (decreased): Subjects with Grade 1 (100 mg QD): 0
Albumin (decreased): Subjects with Grade 2 (100 mg QD): 0
Albumin (decreased): Subjects with Grade 3 (100 mg QD): 0
Albumin (decreased): Subjects with Grade 4 (100 mg QD): 0
Albumin (decreased): Subjects with postbaseline maximum toxicity grade >0 (100 mg QD): 0
Alkaline Phosphatase (increased): Subjects with Grade 2 (100 mg QD): 0
Alkaline Phosphatase (increased): Subjects with Grade 3 (100 mg QD): 0
Alkaline Phosphatase (increased): Subjects with Grade 4 (100 mg QD): 0
Aspartate Aminotransferase (increased): Subjects with Grade 1 (100 mg QD): 9
Aspartate Aminotransferase (increased): Subjects with Grade 3 (100 mg QD): 0
Aspartate Aminotransferase (increased): Subjects with Grade 4 (100 mg QD): 0
Aspartate Aminotransferase (increased): Subjects with postbaseline maximum toxicity grade >0 (100 mg QD): 10
Calcium corrected (decreased): Subjects with Grade 2 (100 mg QD): 0
Calcium corrected (decreased): Subjects with Grade 3 (100 mg QD): 0
Calcium corrected (decreased): Subjects with Grade 4 (100 mg QD): 0
Calcium corrected (increased): Subjects with Grade 2 (100 mg QD): 0
Calcium corrected (increased): Subjects with Grade 3 (100 mg QD): 0
Calcium corrected (increased): Subjects with Grade 4 (100 mg QD): 0
Cholesterol (increased): Subjects with Grade 1 (100 mg QD): 0
Cholesterol (increased): Subjects with Grade 3 (100 mg QD): 0
Cholesterol (increased): Subjects with Grade 4 (100 mg QD): 0
Creatine Kinase (increased): Subjects with Grade 2 (100 mg QD): 0
Creatine Kinase (increased): Subjects with Grade 3 (100 mg QD): 0
Creatinine (increased): Subjects with Grade 2 (100 mg QD): 0
Creatinine (increased): Subjects with Grade 3 (100 mg QD): 0
Creatinine (increased): Subjects with Grade 4 (100 mg QD): 0
Gamma Glutamyl Transferase (increased): Subjects with Grade 1 (100 mg QD): 5
Gamma Glutamyl Transferase (increased): Subjects with Grade 2 (100 mg QD): 0
Gamma Glutamyl Transferase (increased): Subjects with Grade 3 (100 mg QD): 0
Gamma Glutamyl Transferase (increased): Subjects with Grade 4 (100 mg QD): 0
Gamma Glutamyl Transferase (increased): Subjects with postbaseline maximum toxicity grade >0 (100 mg QD): 5
Glucose (decreased): Subjects with Grade 3 (100 mg QD): 0
Glucose (decreased): Subjects with Grade 4 (100 mg QD): 0
Hemoglobin (g/L) (decreased): subjects with Grade 2 (100 mg QD): 0
Hemoglobin (g/L) (decreased): subjects with Grade 3 (100 mg QD): 0
Hemoglobin (g/L) (decreased): subjects with Grade 4 (100 mg QD): 0
Hemoglobin (g/L) (increased): subjects with Grade 1 (100 mg QD): 0
Hemoglobin (g/L) (increased): subjects with Grade 2 (100 mg QD): 0
Hemoglobin (g/L) (increased): subjects with Grade 3 (100 mg QD): 0
Hemoglobin (g/L) (increased): subjects with Grade 4 (100 mg QD): 0
Hemoglobin (g/L) (increased): subjects with postbaseline maximum toxicity grade >0 (100 mg QD): 0
Lymphocytes (×10^9/L) (decreased): subjects with Grade 3 (100 mg QD): 0
Lymphocytes (×10^9/L) (decreased): subjects with Grade 4 (100 mg QD): 0
Lymphocytes (×10^9/L) (increased): subjects with Grade 1 (100 mg QD): 0
Lymphocytes (×10^9/L) (increased): subjects with Grade 3 (100 mg QD): 0
Lymphocytes (×10^9/L) (increased): subjects with Grade 4 (100 mg QD): 0
Magnesium (decreased): Subjects with Grade 2 (100 mg QD): 0
Magnesium (decreased): Subjects with Grade 3 (100 mg QD): 0
Magnesium (decreased): Subjects with Grade 4 (100 mg QD): 0
Magnesium (increased): Subjects with Grade 2 (100 mg QD): 0
Magnesium (increased): Subjects with Grade 3 (100 mg QD): 0
Magnesium (increased): Subjects with Grade 4 (100 mg QD): 0
Neutrophils (×10^9/L) (decreased): subjects with Grade 3 (100 mg QD): 0
Neutrophils (×10^9/L) (decreased): subjects with Grade 4 (100 mg QD): 0
Platelets (×10^9/L) (decreased): subjects with Grade 2 (100 mg QD): 0
Platelets (×10^9/L) (decreased): subjects with Grade 3 (100 mg QD): 0
Platelets (×10^9/L) (decreased): subjects with Grade 4 (100 mg QD): 0
Potassium (decreased): Subjects with Grade 1 (100 mg QD): 0
Potassium (decreased): Subjects with Grade 3 (100 mg QD): 0
Potassium (decreased): Subjects with Grade 4 (100 mg QD): 0
Potassium (increased): Subjects with Grade 1 (100 mg QD): 0
Potassium (increased): Subjects with Grade 3 (100 mg QD): 0
Potassium (increased): Subjects with Grade 4 (100 mg QD): 0
Sodium (decreased): Subjects with Grade 1 (100 mg QD): 0
Sodium (decreased): Subjects with Grade 2 (100 mg QD): 0
Sodium (decreased): Subjects with Grade 3 (100 mg QD): 0
Sodium (decreased): Subjects with Grade 4 (100 mg QD): 0
Sodium (decreased): Subjects with postbaseline maximum toxicity grade >0 (100 mg QD): 0
Sodium (increased): Subjects with Grade 2 (100 mg QD): 0
Sodium (increased): Subjects with Grade 3 (100 mg QD): 0
Sodium (increased): Subjects with Grade 4 (100 mg QD): 0
Total Bilirubin (increased): Subjects with Grade 1 (100 mg QD): 7
Total Bilirubin (increased): Subjects with Grade 2 (100 mg QD): 0
Total Bilirubin (increased): Subjects with Grade 3 (100 mg QD): 0
Total Bilirubin (increased): Subjects with Grade 4 (100 mg QD): 0
Total Bilirubin (increased): Subjects with postbaseline maximum toxicity grade >0 (100 mg QD): 7
Triglycerides (increased): Subjects with Grade 3 (100 mg QD): 0
Triglycerides (increased): Subjects with Grade 4 (100 mg QD): 0
Triglycerides (increased): Subjects with postbaseline maximum toxicity grade >0 (100 mg QD): 5
WBC (×10^9/L) (decreased): subjects with Grade 3 (100 mg QD): 0
WBC (×10^9/L) (decreased): subjects with Grade 4 (100 mg QD): 0
WBC (×10^9/L) (decreased): subjects with postbaseline maximum toxicity grade >0 (100 mg QD): 5
WBC (×10^9/L) (increased): subjects with Grade 1 (100 mg QD): 0
